Literature values, collected in paper PMC3526234 (Diabetes Care, 2012).

Test system: patients with diabetic gastroparesis
Conditions: intravenous erythromycin, 10 patients with diabetic gastroparesis

CC[C@H]1OC(=O)[C@H](C)[C@@H](O[C@H]2C[C@@](C)(OC)[C@@H](O)[C@H](C)O2)[C@H](C)[C@@H](O[C@@H]2O[C@H](C)C[C@H](N(C)C)[C@H]2O)[C@](C)(O)C[C@@H](C)C(=O)[C@H](C)[C@@H](O)[C@]1(C)O [erythromycin]
estimated effect relative to placebo on percent retained at 60 min: 75%
